From patent US20030059771A1, “Compositions and methods related to the Rig tumor suppressor gene and protein” (THE UNITED STATES OF AMERICA, Department of Health and …, priority 2001, published 2003)

B1: FLAG-Rig: FLAG-tagged recombinant Rig protein expressed from pCDNA-FLAG (protein)
chain: MPEQSNDYRVVVFGAGGVGKSSLVLRFVKGTFRDTYIPTIEDTYRQVISCDKSVCTLQITDTTGSHQFPAMQRLSISKGHAFILVFSVTSKQSLEELGPIYKLIVQIKGSVEDIPVMLVGNKCDETQREVDTREAQAVAQEWKCAFMETSAKMNYNVKELFQELLTLETRRNMSLNIDGKRSGKQKRTDRVKGKCTLM
modifications: left off: small tags and cut ends

Key:
[1] = tested on: prenylation of GST-Rig; test: In vitro prenylation assay with farnesyl transferase inhibitor (mevalonate prenylation in rabbit reticulocyte lysate); type: biochemical, human
Excerpt: In this Example, experiments performed to determine the in vitro prenylation characteristics of Rig, Ras and Rap are described. Radiolabelled farnesyl pyrophosphate, radiolabelled geranylgeranyl pyrophosphate or radiolabelled mevalonate were alternatively used as substrates in these assays, to determine the prenylation specificity of each GTPase protein. In addition, the ability of a farnesyl transferase inhibitor (FTI; namely, FTI-277, Calbiochem, Catalog No. 344555) to inhibit the prenylation of Rig, Ras and Rap was examined. Purified GST-Rig, GST-H-Ras (G12V) and GST-Rap fusion proteins were used in the in vitro prenylation experiments. The H-Ras(G12V) protein was included in the prenylation assays to serve as a positive control (Clark et al., Proc. Natl. Acad. Sci. USA 90:4887-4891 [1993]). […]
(§1) Each in vitro prenylation reaction contained approximately 1-2 μg alternatively of GST, GST-Rig, GST-H-Ras(G12V) or GST-Rap. […] The gel was soaked in fixing buffer (water with 10% methanol and 10% acetic acid), soaked in autofluor (National Diagnostics, Catalog No. LS315) and analyzed by autoradiography.
(§2) In a second experiment, the sensitivity of mevalonate prenylation of GST-Rig, GST-Ras and GST-Rap, to increasing amounts of farnesyl transferase inhibitor (FTI-277; Calbiochem) was assessed. […] The gel was fixed, soaked in autofluor and analyzed by autoradiography.

[2] = tested on: prenylation of GST-Rap; test: as above; type: biochemical; conditions: 1-100 nM FTI concentration range
Excerpt: (§3) In this Example, experiments performed to determine the in vitro prenylation characteristics of Rig, Ras and Rap are described. Radiolabelled farnesyl pyrophosphate, radiolabelled geranylgeranyl pyrophosphate or radiolabelled mevalonate were alternatively used as substrates in these assays, to determine the prenylation specificity of each GTPase protein. In addition, the ability of a farnesyl transferase inhibitor (FTI; namely, FTI-277, Calbiochem, Catalog No. 344555) to inhibit the prenylation of Rig, Ras and Rap was examined. Purified GST-Rig, GST-H-Ras (G12V) and GST-Rap fusion proteins were used in the in vitro prenylation experiments. The H-Ras(G12V) protein was included in the prenylation assays to serve as a positive control (Clark et al., Proc. Natl. Acad. Sci. USA 90:4887-4891 [1993]).
(§4) The GST-Rig fusion construct was made by cloning a restriction fragment containing the Rig ORF in frame into the BamHI/EcoRI sites of pGEX-2T (Pharmacia). The vector encoding GST-H-Ras(G12V) was made by subcloning an H-Ras (G12V) BamHI/EcoRI PCR product into the BamHI/EcoRI sites of the pGEX-2T vector. The product was confirmed by sequencing. The GST-Rap fusion construct was produced as described by Clark et al. (Clark et al., J. Biol. Chem., 272:10608-10615 [1997]).
(§5) The resulting plasmids were transformed into competent XL1-Blue Escherichia coli (Stratagene), and the GST-fusion proteins produced by the bacteria were isolated by standard techniques, according to the manufacturer's protocol (Pharmacia), with minor modification (inclusion of 100 μM GTP and the omission of EDTA from the protein collection/purification buffers). Briefly, bacteria were grown to an OD600 of 0.1 in LB broth. At that time, […] isopropyl-β-thiogalactopyranoside (IPTG) was added to the culture. Four hours following IPTG induction, the bacteria were pelleted at 3,000 RPM for 20 minutes, and resuspended in 5 mL lysis buffer (phosphate buffered saline [PBS] containing 100 μM GTP, 0.1% Triton X−100, leupeptin and aprotinin). The lysate was sonicated, then clarified by centrifugation at 10,000 RPM for 30 minutes. The resulting lysate was used as starting material for glutathione-conjugated agarose bead purification (Sigma) using standard techniques. […]
as §1, §2

[3] = tested on: prenylation of GST-Ras(G12V); test: as above; type: biochemical
Excerpt: as §3, §4, §5, §1, §2

[4] = molecular target: T1, Raf-1 (Homo sapiens, UniProt P04049); test: In vivo Rig/Raf-1 co-immunoprecipitation in HEK-293T cells; type: binding; conditions: HEK-293T cells co-transfected with HA-Raf-1
T1 construct: HA-RAF-1 fusion protein expression vector was produced by generating a full-length BamHI-compatible PCR fragment from a Raf-1 template; expressed in transfected cells; host or cells: HEK-293T
Excerpt: In this Example, experiments to assess the ability of Rig and Raf-1 to interact in vivo are described. These experiments (results shown in FIG. 9) used a standard in vivo co-transfection/co-immunoprecipitation protocol, where cultured mammalian cells were cotransfected with FLAG-tagged and/or hemagglutinin (HA)-tagged mammalian expression vector constructs, followed by immunoprecipitation with an anti-Raf-1 antibody and Western immunoblotting using either anti-FLAG or anti-HA primary detection antibodies. The assay was conducted using HEK-293T cells, a transformed human embryonal kidney cell line.
Briefly, HA-RAF-1 fusion protein expression vector was produced by generating a full-length BamHI-compatible PCR fragment from a Raf-1 template (Fabian et al., Proc. Natl. Acad.Sci. USA 91:5982-5986 [1994]), then cloned into the BamHI site of pCGN, which also encodes the HA epitope (Fiordalisi et al, Methods Enzymol., 332:3-36 [2001]). The construct was confirmed by sequencing.
A pCDNA3.1 (FLAG) expression vector was produced by inserting the FLAG epitope in-frame upstream of the BamHI restriction site of the multiple cloning region of pCDNA3.1 (Invitrogen). […]
Following transfection, the cells were cultured in DMEM containing 1% FBS for 48 hours. […] Membranes were then incubated in enhanced chemiluminescent substrate (ECL; Amersham) and the signal was detected on X-ray film.

[5] = FTI 1-100 nM, [3H]-mevalonate, one hour at 30 °C

Row | Molecule | farnesylation of GST-Rig at 100 nM FTI ([1]; 100 nM FTI concentration) | sensitivity of mevalonate prenylation (radiolabelling) of GST-Rig to FTI [1, 5] | sensitivity of GST-Rap farnesylation by mevalonate to FTI [2] | farnesylation of GST-Ras at 100 nM FTI ([3]; 100 nM FTI concentration) | sensitivity of mevalonate prenylation (radiolabelling) of GST-Ras to FTI [3, 5] | sensitivity of GST-Ras prenylation relative to GST-Rig ([3]; comparison of the two proteins, FTI 1-100 nM) | co-precipitation with Raf-1 (anti-Raf-1 immunoprecipitation) [4]
1 | COC(=O)[C@H](CCSC)NC(=O)c1ccc(NC[C@@H](N)CS)cc1-c1ccccc1 [FTI-277] | completely abolished | sensitive | did not show sensitivity | completely abolished | sensitive | greater sensitivity | –
2 | B1 | – | – | – | – | – | – | coprecipitated
